From patent US8906931B1, “9-[4-(3-chloro-2-fluoro-phenylamino-7-methoxy-quinazoline-6-yloxy]-1,4-diaza-spiro[5.5]undecane-5-one dimaleate, use thereof as a medicament and method for the production thereof” (Boehringer Ingelheim International GmbH, priority 2011, dated 2014)

Assay: Water sorption test (DVS, hygroscopicity)
Assay type: physicochemical
Conditions: humidity range of 10-90% r.h.
Description: By low hygroscopicity is meant, within the scope of the present invention, that in sorption experiments on the compound of formula (I) a water uptake of less than 1% is observed in the humidity range of 10-90% investigated.
A DVS-1 made by Surface Measurement Systems (=SMS) is used to test the hygroscopic characteristics: the following humidity profiles are used: 10-90% r.h. in 10% steps, recording both a sorption and a desorption profile, typical weights: 10-20 mg

## COc1cc2ncnc(Nc3cccc(Cl)c3F)c2cc1O[C@H]1CC[C@@]2(CC1)NCCNC2=O.O=C(O)/C=C\C(=O)O.O=C(O)/C=C\C(=O)O [(I), (trans)-9-[4-(3-chloro-2-fluoro-phenylamino)-7-methoxy-quinazolin-6-yloxy]-1,4-diaza-spiro[5.5]undecan-5-one dimaleic acid compound]
  water uptake in sorption experiments: less than 1%
